Assay in all cases: relative viability (nuclei count vs DMSO), 5 days (fraction); higher = more cells survive
Compound in the assay “CAP-232 + Foretinib”: C[C@H]([C@@H](C(=O)N)NC(=O)[C@@H]1CSSC[C@@H](C(=O)N[C@H](C(=O)N[C@@H](C(=O)N[C@H](C(=O)N1)CCCCN)CC2=CNC3=CC=CC=C32)CC4=CC=C(C=C4)O)NC(=O)[C@@H](CC5=CC=CC=C5)N)O [CAP-232] + COc1cc2c(Oc3ccc(NC(=O)C4(C(=O)Nc5ccc(F)cc5)CC4)cc3F)ccnc2cc1OCCCN1CCOCC1 [Foretinib] (partner 0.25 µM)
Summed up:
(§1)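 The day after seeding in 1536-well plates, lung cancer cell lines were treated by pin tool with a single drug, or with a fixed anchor-drug dose together with five library-drug doses (not always all listed) in √10 steps. After 5 days, a combined fix-and-stain solution (final 0.05% Triton X-100, 1% formaldehyde, 1 ug/ml Hoechst) was added. Nuclei counted on 4× images gave relative viability as treated counts over vehicle counts, reported as the median of duplicate plates.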

Compound in the assay “CAP-232 + Trametinib”: C[C@H]([C@@H](C(=O)N)NC(=O)[C@@H]1CSSC[C@@H](C(=O)N[C@H](C(=O)N[C@@H](C(=O)N[C@H](C(=O)N1)CCCCN)CC2=CNC3=CC=CC=C32)CC4=CC=C(C=C4)O)NC(=O)[C@@H](CC5=CC=CC=C5)N)O [CAP-232] + CC(=O)Nc1cccc(-n2c(=O)n(C3CC3)c(=O)c3c(Nc4ccc(I)cc4F)n(C)c(=O)c(C)c32)c1 [Trametinib] (partner 0.02 µM)
In a few lines:
as §1

Compound in the assay “CAP-232 + Navitoclax”: C[C@H]([C@@H](C(=O)N)NC(=O)[C@@H]1CSSC[C@@H](C(=O)N[C@H](C(=O)N[C@@H](C(=O)N[C@H](C(=O)N1)CCCCN)CC2=CNC3=CC=CC=C32)CC4=CC=C(C=C4)O)NC(=O)[C@@H](CC5=CC=CC=C5)N)O [CAP-232] + CC1(C)CCC(c2ccc(Cl)cc2)=C(CN2CCN(c3ccc(C(=O)NS(=O)(=O)c4ccc(N[C@H](CCN5CCOCC5)CSc5ccccc5)c(S(=O)(=O)C(F)(F)F)c4)cc3)CC2)C1 [Navitoclax] (partner 0.5 µM)
Summed up: as §1

Compound in the assay “CAP-232 + Lapatinib”: C[C@H]([C@@H](C(=O)N)NC(=O)[C@@H]1CSSC[C@@H](C(=O)N[C@H](C(=O)N[C@@H](C(=O)N[C@H](C(=O)N1)CCCCN)CC2=CNC3=CC=CC=C32)CC4=CC=C(C=C4)O)NC(=O)[C@@H](CC5=CC=CC=C5)N)O [CAP-232] + CS(=O)(=O)CCNCc1ccc(-c2ccc3ncnc(Nc4ccc(OCc5cccc(F)c5)c(Cl)c4)c3c2)o1 [Lapatinib] (partner 2 µM)
Summed up: as §1

Compound in the assay “CAP-232 + Dasatinib”: C[C@H]([C@@H](C(=O)N)NC(=O)[C@@H]1CSSC[C@@H](C(=O)N[C@H](C(=O)N[C@@H](C(=O)N[C@H](C(=O)N1)CCCCN)CC2=CNC3=CC=CC=C32)CC4=CC=C(C=C4)O)NC(=O)[C@@H](CC5=CC=CC=C5)N)O [CAP-232] + Cc1nc(Nc2ncc(C(=O)Nc3c(C)cccc3Cl)s2)cc(N2CCN(CCO)CC2)n1 [Dasatinib] (partner 0.075 µM)
Summed up: as §1

As to NCI-H596, the relative viability was 0.863 with CAP-232 + Foretinib (first compound 0.4 µM); 0.739 with CAP-232 + Foretinib (first compound 1.265 µM); 0.985 with CAP-232 + Foretinib (first compound 4 µM); 0.827 with CAP-232 + Foretinib (first compound 12.65 µM); 0.901 in the assay with CAP-232 + Trametinib (first compound 0.4 µM); 0.675 with CAP-232 + Trametinib (first compound 1.265 µM). In addition, the relative viability was determined as 0.851 with CAP-232 + Trametinib (first compound 4 µM); 0.765 in the assay with CAP-232 + Trametinib (first compound 12.65 µM); 0.839 with CAP-232 + Navitoclax (first compound 0.4 µM); 1 with CAP-232 + Navitoclax (first compound 1.265 µM); 1.08 with CAP-232 + Navitoclax (first compound 4 µM); 0.987 with CAP-232 + Navitoclax (first compound 12.65 µM). Moreover, the relative viability in the assay with CAP-232 + Lapatinib (first compound 0.4 µM) was 1.13; in the assay with CAP-232 + Lapatinib (first compound 1.265 µM) it was 1.03; in the assay with CAP-232 + Lapatinib (first compound 4 µM) it was 1.01; with CAP-232 + Lapatinib (first compound 12.65 µM), 0.974; with CAP-232 + Dasatinib (first compound 0.4 µM), 0.502; in the assay with CAP-232 + Dasatinib (first compound 1.265 µM), 0.615. For the same cell line, the relative viability with CAP-232 + Dasatinib (first compound 4 µM) is 0.536; with CAP-232 + Dasatinib (first compound 12.65 µM), 0.615.

NCI-H647: the relative viability in the assay with CAP-232 + Foretinib (first compound 0.4 µM) is 1.15; with CAP-232 + Foretinib (first compound 1.265 µM), 1.06; in the assay with CAP-232 + Foretinib (first compound 4 µM), 1.36; with CAP-232 + Foretinib (first compound 12.65 µM) it was 0.749; with CAP-232 + Trametinib (first compound 0.4 µM), 0.321; with CAP-232 + Trametinib (first compound 1.265 µM) it was 0.504. Moreover, the relative viability was 0.564 with CAP-232 + Trametinib (first compound 4 µM); 0.249 with CAP-232 + Trametinib (first compound 12.65 µM); 1.35 with CAP-232 + Navitoclax (first compound 0.4 µM); 1.27 with CAP-232 + Navitoclax (first compound 1.265 µM); 1.31 in the assay with CAP-232 + Navitoclax (first compound 4 µM); 1.09 in the assay with CAP-232 + Navitoclax (first compound 12.65 µM). For the same cell line, the relative viability in the assay with CAP-232 + Lapatinib (first compound 0.4 µM) was 1.07; in the assay with CAP-232 + Lapatinib (first compound 1.265 µM), 1.14; with CAP-232 + Lapatinib (first compound 4 µM), 1.39; in the assay with CAP-232 + Lapatinib (first compound 12.65 µM) it was 0.469; with CAP-232 + Dasatinib (first compound 0.4 µM), 0.259; with CAP-232 + Dasatinib (first compound 1.265 µM), 0.155. In addition, the relative viability is 0.179 with CAP-232 + Dasatinib (first compound 4 µM) and 0.125 with CAP-232 + Dasatinib (first compound 12.65 µM).

On to NCI-H727, for which the relative viability with CAP-232 + Foretinib (first compound 0.4 µM) was found to be 0.933; with CAP-232 + Foretinib (first compound 1.265 µM) it was 0.92; in the assay with CAP-232 + Foretinib (first compound 4 µM) it was 0.845; in the assay with CAP-232 + Foretinib (first compound 12.65 µM) it was 0.824; in the assay with CAP-232 + Trametinib (first compound 0.4 µM), 0.383; in the assay with CAP-232 + Trametinib (first compound 1.265 µM), 0.397. Further, the relative viability turned out to be 0.442 in the assay with CAP-232 + Trametinib (first compound 4 µM); 0.415 with CAP-232 + Trametinib (first compound 12.65 µM); 0.431 with CAP-232 + Navitoclax (first compound 1.265 µM); 0.377 with CAP-232 + Navitoclax (first compound 4 µM); 0.347 in the assay with CAP-232 + Navitoclax (first compound 12.65 µM); 0.792 with CAP-232 + Lapatinib (first compound 1.265 µM). Further, the relative viability amounted to 0.826 with CAP-232 + Lapatinib (first compound 4 µM); 0.719 with CAP-232 + Lapatinib (first compound 12.65 µM); 0.301 in the assay with CAP-232 + Dasatinib (first compound 0.4 µM); 0.362 with CAP-232 + Dasatinib (first compound 1.265 µM); 0.38 in the assay with CAP-232 + Dasatinib (first compound 4 µM); 0.335 with CAP-232 + Dasatinib (first compound 12.65 µM).

As to NCI-H838, the relative viability in the assay with CAP-232 + Foretinib (first compound 0.4 µM) was found to be 1.23; with CAP-232 + Foretinib (first compound 1.265 µM), 1.02; in the assay with CAP-232 + Foretinib (first compound 4 µM), 1.11; in the assay with CAP-232 + Foretinib (first compound 12.65 µM), 0.75; in the assay with CAP-232 + Trametinib (first compound 0.4 µM), 0.59; with CAP-232 + Trametinib (first compound 1.265 µM), 0.555. The relative viability stood at 0.626 with CAP-232 + Trametinib (first compound 4 µM); 0.39 in the assay with CAP-232 + Trametinib (first compound 12.65 µM); 1.21 with CAP-232 + Navitoclax (first compound 0.4 µM); 1.19 with CAP-232 + Navitoclax (first compound 1.265 µM); 1.28 with CAP-232 + Navitoclax (first compound 4 µM); 0.556 with CAP-232 + Navitoclax (first compound 12.65 µM). In addition, the relative viability in the assay with CAP-232 + Lapatinib (first compound 0.4 µM) amounted to 0.976; with CAP-232 + Lapatinib (first compound 1.265 µM), 0.974; in the assay with CAP-232 + Lapatinib (first compound 4 µM), 1.14; with CAP-232 + Lapatinib (first compound 12.65 µM), 0.499; with CAP-232 + Dasatinib (first compound 0.4 µM) it was 0.364; with CAP-232 + Dasatinib (first compound 1.265 µM), 0.249. Further, the relative viability with CAP-232 + Dasatinib (first compound 4 µM) was found to be 0.403; in the assay with CAP-232 + Dasatinib (first compound 12.65 µM), 0.25.

The record behind these values is the supplement of paper PMC10307832.
